The target of data set [1] is Fibroblast growth factor receptor 1 (Homo sapiens, UniProt P11362). The experiment in a line: Inhibition of bFGFR (unknown origin) incubated for 30 mins by enzyme immunoassay.
For the next data set, the system named is HepG2. Put plainly: Antiproliferative activity against human HepG2 cells assessed as inhibition of cell proliferation incubated for 48 hrs by MTT assay. Type of data set: functional, cell-based. The conditions noted are these: HepG2, 48 h. (In general: Formazan colour is commonly taken as a measure of viable cells.)
The test system of a further data set is HeLa. The experiment in a line: Antiproliferative activity against human HeLa cells assessed as inhibition of cell proliferation incubated for 48 hrs by MTT assay. Type of data set: functional, cell-based.
The target of data set [2] is Vascular endothelial growth factor receptor 2 (Homo sapiens, UniProt P35968). The experiment in a line: Inhibition of VEGFR2 (unknown origin) incubated for 30 mins by enzyme immunoassay.
Sequence of Vascular endothelial growth factor receptor 2 (P35968 whole entry): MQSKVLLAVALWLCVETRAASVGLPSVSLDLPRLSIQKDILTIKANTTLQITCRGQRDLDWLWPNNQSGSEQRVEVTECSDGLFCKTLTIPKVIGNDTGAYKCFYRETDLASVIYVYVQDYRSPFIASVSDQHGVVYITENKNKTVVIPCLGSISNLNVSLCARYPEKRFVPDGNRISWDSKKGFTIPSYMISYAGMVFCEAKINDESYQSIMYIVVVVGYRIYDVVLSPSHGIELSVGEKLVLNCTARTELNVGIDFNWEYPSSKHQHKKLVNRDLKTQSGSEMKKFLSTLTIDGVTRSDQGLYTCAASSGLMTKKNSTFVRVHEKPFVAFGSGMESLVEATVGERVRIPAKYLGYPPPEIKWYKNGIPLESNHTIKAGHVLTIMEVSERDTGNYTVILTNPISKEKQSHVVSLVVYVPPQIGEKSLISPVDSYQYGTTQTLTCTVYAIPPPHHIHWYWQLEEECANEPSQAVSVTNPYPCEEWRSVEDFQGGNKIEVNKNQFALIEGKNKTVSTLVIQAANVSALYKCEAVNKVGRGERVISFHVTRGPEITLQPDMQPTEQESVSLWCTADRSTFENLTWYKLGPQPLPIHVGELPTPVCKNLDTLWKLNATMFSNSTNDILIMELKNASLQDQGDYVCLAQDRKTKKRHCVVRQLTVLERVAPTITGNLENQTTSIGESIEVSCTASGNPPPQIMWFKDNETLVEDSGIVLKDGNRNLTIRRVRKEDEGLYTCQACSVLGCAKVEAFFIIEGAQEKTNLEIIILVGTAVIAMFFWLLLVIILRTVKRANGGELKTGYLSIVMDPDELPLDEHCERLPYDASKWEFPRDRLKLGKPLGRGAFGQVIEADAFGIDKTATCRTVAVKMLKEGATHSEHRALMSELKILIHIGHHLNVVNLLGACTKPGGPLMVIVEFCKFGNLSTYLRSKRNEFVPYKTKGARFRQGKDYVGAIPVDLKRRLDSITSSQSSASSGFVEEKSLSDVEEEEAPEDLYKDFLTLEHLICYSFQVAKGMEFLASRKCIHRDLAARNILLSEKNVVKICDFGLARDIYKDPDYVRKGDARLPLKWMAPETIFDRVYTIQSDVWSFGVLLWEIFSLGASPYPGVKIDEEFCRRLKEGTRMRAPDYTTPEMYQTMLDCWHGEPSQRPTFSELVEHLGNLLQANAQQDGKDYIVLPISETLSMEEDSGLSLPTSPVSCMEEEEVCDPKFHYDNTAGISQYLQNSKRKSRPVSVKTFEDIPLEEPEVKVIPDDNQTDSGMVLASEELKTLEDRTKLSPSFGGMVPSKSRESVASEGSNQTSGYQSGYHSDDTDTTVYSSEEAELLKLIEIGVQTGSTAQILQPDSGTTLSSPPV
In another data set the test system is A549. The experiment in a line: Antiproliferative activity against human A549 cells assessed as inhibition of cell proliferation incubated for 48 hrs by MTT assay. Type of data set: functional, cell-based. The settings on record: A549, 48 h.
Data set [3] in a line: Inhibition of PDGFR (unknown origin) incubated for 30 mins by enzyme immunoassay. The arrangement: species or system Homo sapiens.
Data set [4] relates to MCF7. The experiment in a line: Antiproliferative activity against human MCF7 cells assessed as inhibition of cell proliferation incubated for 48 hrs by MTT assay. The conditions noted are these: MCF7, 48 h. Type of data set: functional, cell-based.
Data set [5] deals with Epidermal growth factor receptor (Homo sapiens, UniProt P00533). Put plainly: Inhibition of EGFR (unknown origin) incubated for 30 mins by enzyme immunoassay.
Sequence of Epidermal growth factor receptor (P00533 whole entry): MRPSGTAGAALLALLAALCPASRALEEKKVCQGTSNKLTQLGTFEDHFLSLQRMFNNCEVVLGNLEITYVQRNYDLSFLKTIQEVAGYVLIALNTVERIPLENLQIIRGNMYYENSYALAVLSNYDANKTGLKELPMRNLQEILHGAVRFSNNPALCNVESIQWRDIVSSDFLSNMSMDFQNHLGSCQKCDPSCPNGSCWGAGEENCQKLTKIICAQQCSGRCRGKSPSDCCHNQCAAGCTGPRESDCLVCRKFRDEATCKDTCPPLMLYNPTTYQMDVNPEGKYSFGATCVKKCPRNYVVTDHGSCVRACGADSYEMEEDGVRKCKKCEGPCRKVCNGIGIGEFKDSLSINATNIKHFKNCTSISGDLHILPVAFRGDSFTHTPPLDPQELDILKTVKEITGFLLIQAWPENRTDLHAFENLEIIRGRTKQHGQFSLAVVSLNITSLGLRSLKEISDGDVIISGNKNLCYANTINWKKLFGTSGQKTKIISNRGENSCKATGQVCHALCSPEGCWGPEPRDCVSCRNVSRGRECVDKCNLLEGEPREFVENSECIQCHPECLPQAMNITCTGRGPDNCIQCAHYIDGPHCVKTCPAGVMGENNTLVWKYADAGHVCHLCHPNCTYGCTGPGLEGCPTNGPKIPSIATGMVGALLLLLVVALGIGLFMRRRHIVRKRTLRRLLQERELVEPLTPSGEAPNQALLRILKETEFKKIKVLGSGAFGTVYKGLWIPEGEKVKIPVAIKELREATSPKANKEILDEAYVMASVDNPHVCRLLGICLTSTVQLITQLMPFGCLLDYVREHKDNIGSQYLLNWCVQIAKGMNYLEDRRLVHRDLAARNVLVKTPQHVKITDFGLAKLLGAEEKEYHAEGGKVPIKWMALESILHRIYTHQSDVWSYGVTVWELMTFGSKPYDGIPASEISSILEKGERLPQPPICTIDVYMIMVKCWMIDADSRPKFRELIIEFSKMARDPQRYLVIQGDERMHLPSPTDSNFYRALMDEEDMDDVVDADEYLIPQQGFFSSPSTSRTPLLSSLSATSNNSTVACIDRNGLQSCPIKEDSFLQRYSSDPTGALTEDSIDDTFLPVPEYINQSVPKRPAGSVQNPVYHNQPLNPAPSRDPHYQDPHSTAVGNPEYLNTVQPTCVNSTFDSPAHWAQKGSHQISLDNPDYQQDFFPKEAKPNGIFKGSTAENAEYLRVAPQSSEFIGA
Data set [6] in a line: Cytotoxicity in HEK293T cells assessed as reduction in cell viability incubated for 48 hrs by MTT assay. Type of data set: cell-based, HEK-293T. The conditions noted are these: human.
The subject of data set [7] is MCF7. Put plainly: Induction of apoptosis in human MCF7 cells incubated for 24 hrs by Annexin V-FITC/PI double staining based flow cytometry analysis. Type of data set: functional, cell-based.

Our source for the IC50, CC50 and Activity values is ChEMBL document CHEMBL4385653, “Design, synthesis, biological evaluation of benzoyl amide derivatives containing nitrogen heterocyclic ring as potential VEGFR-2 inhibitors” (Bioorg Med Chem, 2019).

Sequence of Fibroblast growth factor receptor 1 (P11362 whole entry): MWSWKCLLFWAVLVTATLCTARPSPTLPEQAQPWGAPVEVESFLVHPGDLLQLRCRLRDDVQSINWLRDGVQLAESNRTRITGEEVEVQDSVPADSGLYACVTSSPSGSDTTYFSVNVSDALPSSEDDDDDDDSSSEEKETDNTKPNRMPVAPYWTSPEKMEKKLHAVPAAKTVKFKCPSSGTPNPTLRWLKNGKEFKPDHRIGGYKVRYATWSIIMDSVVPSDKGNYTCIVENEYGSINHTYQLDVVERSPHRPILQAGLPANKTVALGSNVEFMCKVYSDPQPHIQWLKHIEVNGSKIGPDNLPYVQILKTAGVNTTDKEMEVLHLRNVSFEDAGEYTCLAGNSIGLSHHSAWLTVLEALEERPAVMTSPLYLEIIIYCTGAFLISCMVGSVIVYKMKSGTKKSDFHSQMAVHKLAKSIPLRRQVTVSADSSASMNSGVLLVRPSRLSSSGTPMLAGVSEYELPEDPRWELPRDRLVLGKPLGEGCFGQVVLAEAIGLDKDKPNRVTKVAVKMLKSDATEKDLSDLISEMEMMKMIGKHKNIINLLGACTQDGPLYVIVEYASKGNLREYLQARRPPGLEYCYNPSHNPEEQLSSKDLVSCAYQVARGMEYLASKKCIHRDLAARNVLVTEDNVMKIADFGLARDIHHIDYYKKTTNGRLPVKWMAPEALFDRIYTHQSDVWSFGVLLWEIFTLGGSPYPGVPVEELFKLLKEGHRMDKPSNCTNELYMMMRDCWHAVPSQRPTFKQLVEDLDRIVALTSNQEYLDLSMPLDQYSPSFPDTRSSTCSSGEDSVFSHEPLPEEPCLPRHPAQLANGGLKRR

The IC50 is the point on the concentration scale where inhibition reaches its midpoint. As to `Cn1cc(NC(=O)c2cccc(NS(=O)(=O)c3ccc(Cl)cc3)c2)cn1`, the IC50 is 58.9 µM in data set [1]; 82.7 µM with HepG2; 63 µM in the data set with HeLa; 17.4 µM in data set [2]; more than 100 µM with A549; 39.9 µM in [3]. Moreover, the IC50 in the data set on MCF7 [4] was 32.3 µM.
On to `Cn1cc(NC(=O)c2ccc(NS(=O)(=O)c3ccccc3)cc2)cn1`, for which the IC50 in [1] is 62.1 µM; with HepG2 it was more than 100 µM; in the data set with HeLa, 92.8 µM; in data set [2], 25.2 µM; in data set [5] it was 36.8 µM; with A549 it was more than 100 µM. Also, the IC50 in data set [3] came to 42.6 µM; in the data set with MCF7 [4], 58.7 µM.
For `COc1ccc(-n2cc(NC(=O)c3ccc(NS(=O)(=O)c4ccccc4)cc3)cn2)cc1`, the IC50 in data set [1] is 45.3 µM; with HepG2, 57.3 µM; with HeLa it was 47.2 µM; in data set [2] it was 14.5 µM; in data set [5] it was 26.1 µM; in the data set with A549, 85.8 µM. Moreover, the IC50 is 36.8 µM in [3] and 25.6 µM in the data set with MCF7 [4].
One may read the CC50 as the concentration giving 50% cytotoxicity. For the compound `Cc1ccc(-n2cc(NC(=O)c3ccc(NS(=O)(=O)c4ccc(Cl)cc4)cc3)cn2)cc1`, the IC50 in data set [1] amounted to 16.2 µM; in the data set with HepG2, 9.72 µM; in the data set with HeLa, 8.01 µM; in data set [2], 2.88 µM; in data set [5], 12.4 µM; in the data set on A549, 22 µM. Moreover, the IC50 in data set [3] came out at 15.8 µM; in the data set with MCF7 [4], 3.99 µM. Further, in [6], the CC50 at 48 h stood at 138 µM.
For `COc1cccc(-n2cc(NC(=O)c3ccc(NS(=O)(=O)c4ccccc4)cc3)cn2)c1`, the 50% inhibitory concentration (IC50) in data set [1] is 47.5 µM; in the data set on HepG2, 64.2 µM; in the data set on HeLa, 66.2 µM; in [2], 16.2 µM; in data set [5], 24.1 µM; in the data set with A549, more than 100 µM. For the same compound, the IC50 was 39.5 µM in data set [3] and 28.4 µM in the data set on MCF7 [4].
In the case of `COc1cccc(-n2cc(NC(=O)c3cccc(NS(=O)(=O)c4ccccc4)c3)cn2)c1`, the IC50 in data set [1] amounted to 33.5 µM; with HepG2, 25 µM; in the data set on HeLa, 26.2 µM; in data set [2], 9.22 µM; in data set [5] it was 22.9 µM; in the data set with A549, 81.1 µM. The figures for the half-maximal inhibitory concentration (IC50) (in data set [3]; with MCF7 [4]) were 27.8 µM and 16.7 µM, respectively.
Consider `COc1ccc(-n2cc(NC(=O)c3cccc(NS(=O)(=O)c4ccccc4)c3)cn2)cc1`, for which the IC50 in data set [1] is 37 µM; in the data set with HepG2, 35.7 µM; in the data set with HeLa, 42.2 µM; in data set [2], 10.4 µM; in data set [5] it was 27 µM; in the data set with A549, 76.8 µM. Besides, the IC50 is 38.5 µM in data set [3] and 18.7 µM in the data set on MCF7 [4].
As for `O=C(Nc1cnn(-c2ccccc2)c1)c1cccc(NS(=O)(=O)c2ccc(Cl)cc2)c1`, the IC50 stood at 18.5 µM in data set [1]; 8.54 µM with HepG2; 5.41 µM with HeLa; 2.39 µM in [2]; 10.6 µM in data set [5]; 19.3 µM in the data set with A549. Also, the IC50 in data set [3] worked out at 17.6 µM; in the data set on MCF7 [4], 3.13 µM. Further, the CC50 at 48 h in data set [6] was determined as 120 µM.
For the compound `COc1cc2c(Nc3ccc(Br)cc3F)ncnc2cc1OCC1CCN(C)CC1` [VANDETANIB], the CC50 at 48 h in [6] was 172 µM.
Consider `O=C(Nc1cnn(-c2ccccc2)c1)c1cccc(NS(=O)(=O)c2ccccc2)c1`, for which the IC50 in data set [1] was found to be 18.2 µM; with HepG2 it was 10.1 µM; in the data set with HeLa it was 15.3 µM; in data set [2], 3.26 µM; in [5], 15.4 µM; with A549, 26.8 µM. Further, the IC50 turned out to be 18.6 µM in [3] and 4.32 µM in the data set on MCF7 [4]. The CC50 at 48 h in [6] was 110 µM.
Consider `COc1cccc(-n2cc(NC(=O)c3cccc(NS(=O)(=O)c4ccc(Cl)cc4)c3)cn2)c1`, for which the IC50 in data set [1] came to 22.2 µM; in the data set on HepG2, 19.6 µM; in the data set on HeLa it was 25 µM; in [2] it was 5.97 µM; in data set [5], 15.6 µM; with A549, 44.4 µM. Further, the IC50 was found to be 24.4 µM in data set [3] and 9.43 µM with MCF7 [4]. In addition, the CC50 at 48 h in [6] was 133 µM.
As to `COc1ccc(-n2cc(NC(=O)c3ccc(NS(=O)(=O)c4ccc(Cl)cc4)cc3)cn2)cc1`, the IC50 in data set [1] was determined as 26.5 µM; in the data set on HepG2 it was 19.1 µM; in the data set with HeLa, 25.2 µM; in data set [2] it was 7.16 µM; in [5], 16.2 µM; in the data set on A549, 61 µM. The IC50 was found to be 26.5 µM in [3] and 15.6 µM with MCF7 [4].
For `COc1cc2/c(=N/c3ccc(Br)cc3F)nc[nH]c2cc1OCC1CCN(C)CC1` [VANDETANIB], the IC50 in the data set on HepG2 turned out to be 2.46 µM; in the data set on HeLa, 6.57 µM; in the data set with A549, 18.2 µM; in [3] it was 1.33 µM; with MCF7 [4] it was 1.4 µM. Besides, the Activity entry with MCF7 [7] is “Dose-dependent effect”.
In the case of `COc1ccc(-n2cc(NC(=O)c3cccc(NS(=O)(=O)c4ccc(Cl)cc4)c3)cn2)cc1`, the concentration for half-maximal inhibition (IC50) worked out at 25.5 µM in data set [1]; 15.2 µM in the data set on HepG2; 19.7 µM with HeLa; 5.15 µM in [2]; 15.3 µM in data set [5]; 29.7 µM in the data set on A549. The IC50 in data set [3] was found to be 21.7 µM; in the data set on MCF7 [4], 8.72 µM. The CC50 at 48 h in [6] stood at 89.8 µM.
Regarding `O=C(Nc1cnn(-c2ccccc2)c1)c1ccc(NS(=O)(=O)c2ccc(Cl)cc2)cc1`, the IC50 in data set [1] was found to be 21.6 µM; in the data set with HepG2 it was 15.2 µM; in the data set on HeLa, 18.4 µM; in data set [2], 3.71 µM; in the data set on A549, 33.9 µM; in [3], 19.4 µM. Besides, the IC50 in the data set with MCF7 [4] amounted to 5.25 µM. Moreover, the CC50 at 48 h in data set [6] was found to be 125 µM.
With `Cn1cc(NC(=O)c2cccc(NS(=O)(=O)c3ccccc3)c2)cn1`, the IC50 in data set [1] was 57.1 µM; in the data set on HepG2, 85.3 µM; in the data set with HeLa, 78.5 µM; in [2], 20.4 µM; in [5], 34.3 µM; with A549, more than 100 µM. The IC50 in [3] was 41.6 µM; in the data set with MCF7 [4] it was 41.2 µM.
For `Cc1ccc(-n2cc(NC(=O)c3ccc(NS(=O)(=O)c4ccccc4)cc3)cn2)cc1`, the IC50 turned out to be 28.1 µM in data set [1]; 18.1 µM in the data set with HepG2; 27.9 µM with HeLa; 6.85 µM in data set [2]; 18.3 µM in [5]; 54.7 µM in the data set on A549. In addition, the IC50 is 26 µM in data set [3] and 10.9 µM in the data set on MCF7 [4]. For the same compound, the CC50 at 48 h in data set [6] came out at 107 µM.
As for `Cc1ccc(-n2cc(NC(=O)c3cccc(NS(=O)(=O)c4ccccc4)c3)cn2)cc1`, the IC50 in data set [1] was 16.2 µM; with HepG2, 6.05 µM; in the data set with HeLa it was 3.12 µM; in data set [2] it was 0.58 µM; in data set [5], 9.57 µM; with A549, 18.9 µM. For the same compound, the results for the half-maximal inhibitory concentration (IC50) (in data set [3]; in the data set with MCF7 [4]) were 15.7 µM and 1.69 µM, respectively. Also, the CC50 at 48 h in data set [6] worked out at 93.8 µM.
As for `O=C(Nc1cnn(-c2ccccc2)c1)c1ccc(NS(=O)(=O)c2ccccc2)cc1`, the IC50 in [1] was determined as 35.9 µM; in the data set with HepG2, 21.5 µM; in the data set with HeLa it was 37.1 µM; in [2], 10.1 µM; in [5], 25.4 µM; with A549 it was 87.1 µM. Besides, the IC50 in [3] was found to be 34.6 µM; in the data set with MCF7 [4] it was 17.1 µM.
